The values below come from US20240415793A1, “Neuroprotective composition comprising pyruvate and citrate” (N.V. Nutricia, priority 2022, published 2024).

Assay [1] deals with Phosphofructokinase 1 (PFK1). Conditions: tissue- and brain-specific isoforms; cited from earlier work.
Assay [2] relates to primary rat neuronal-glial cell cultures. Put plainly: Seahorse assay (OCR/ECAR), acute 1 h nutrient pre-incubation, resting or seizure-like conditions. It counts as cell-based. Particulars: for increase in OM-induced glycolytic rates (tended): FIG. 3D.
Assay [3] has the same test system. The assay is described as above. It counts as cell-based. Conditions: 1 mM citrate. The method, then:
A Seahorse assay was performed on primary rat neuronal-glial cell cultures to determine the impact of pyruvate and citric acid on glycolytic rates and lactate delivery, mitochondrial respiration and total (glycolytic and mitochondrial) ATP production.
Rat cortical cells were isolated from embryonic day 18 embryos using a combination of enzymatic and mechanical dissociation of brain cortical rat tissue. Immediately after dissociation, the cells were seeded at a density of 500′000 cells per mL in 96-well plates and grown at 37° C. for two weeks from day in vitro (DIV) 0 until DIV14 in Neurobasal medium supplemented with 2% (v/v) B27, 0.8 mM Magnesium (Mg2+), 25 mM glucose and 1% (v/v) Penicillin/Streptomycin. During this time neuronal axons grew out and formed synaptic contacts. In addition, glial cells, foremost astrocytes, grew and formed contacts with neurons. The incubation in 25 mM glucose accelerated the differentiation and network growth of neurons.
From DIV14 until DIV17, the cells were incubated in Neurobasal medium supplemented with 2% (v/v) B27, 0.8 mM Mg2+, 5 mM glucose and 1% (v/v) Penicillin/Streptomycin. The switch from high to low glucose was done to approach the low intracerebral glucose concentration of the human brain and create a more physiological metabolic environment.
The switch from 5 mM to 1 mM glucose matched the glucose concentrations in the human brain. Meanwhile the switch from high (0.8 mM) to low (0.1 mM) Mg^2+ increases the electrical firing frequency of neurons because Mg2+ is an inhibitor of excitatory NMDA-type ionotropic glutamate receptors, which account for most of the neuronal firing in this cell culture model. The increase in neuronal firing caused by incubation in 0.1 mM Mg^2+ increases the energy production of neurons and glial cells as reflected in the increase in basal respiration (FIG. 1B and E). After 1 hour of pre-incubation in the Seahorse medium containing the nutrients, the oxygen consumption rate [OCRs] and extracellular acidification rate [ECARs] of the neuroglial culture were measured in the Seahorse assay.
(§1) The oxygen consumption rates (OCRs) and extracellular acidification rates (ECARs) of cells seeded in 96-well plates were monitored in real time at 37° C. in unbuffered Hanks Balanced Salt Solution (HBSS). The OCRs represent foremost mitochondrial respiration, and to a minor extent non-mitochondrial respiration. The ECARs relate foremost to the acidification of the medium with lactate produced through glycolysis and secreted by the cells into the medium (Table 1).
(§2) During the Seahorse run, both the OCRs and ECARs were measured simultaneously at baseline and following the injection of compounds by the Seahorse instrument (Table 1). HBSS was supplemented with glucose from the start and no glucose was injected through the Seahorse instruments. Measurements were repeated three times at baseline and three times after each compound injection.
(§3) After the initial baseline measurement, oligomycin (OM) was injected. OM blocks mitochondrial ATP synthase (complex V) and therefore decreases mitochondrial respiration. The OCRs after OM injection are due to the mitochondrial proton leak. They enable to determine whether the test nutrients impact the proton leak. The difference in OCRs at baseline and after OM injection is the amount of oxygen used for mitochondrial ATP synthesis at baseline. From this difference in OCR, the mitochondrial ATP production rates are calculated.
After OM, uncoupling agent carbonyl cyanide-p- trifluoromethoxyphenyl-hydrazon [FCCP] was injected which collapses the proton gradient across the inner mitochondrial membrane established during respiration and required for ATP synthesis. The cells attempt to restore the proton gradient following FCCP injection by maximizing respiration. […]

For assay [4], the system named is neuroglial cell cultures. Put plainly: Seahorse assay (OCR/ECAR), 24-hour incubation with citrate under resting conditions. It counts as cell-based, rat. Conditions: 0.8 mM Mg2+, vs control medium; for increase in basal glycolytic rates: FIG. 5A; for increase in OM-induced increase in glycolytic rates: FIG. 5B; for increase in FCCP-induced maximal glycolytic capacity: FIG. 5C. The method, then: as §1, §2, §3
After OM, uncoupling agent carbonyl cyanide-p- trifluoromethoxyphenyl-hydrazon [FCCP] was injected which collapses the proton gradient across the inner mitochondrial membrane established during respiration and required for ATP synthesis. The cells attempt to restore the proton gradient following FCCP injection by maximizing respiration. The OCRs measured after FCCP injection therefore represent the maximal respiratory capacity of the mitochondria in the sample and enable to determine whether test nutrients impact the maximal respiratory capacity of the mitochondria.
Finally, Antimycin A, a complex III inhibitor, and Rotenone, a complex I inhibitor, were co-injected, both blocking the respiratory chain at different sites to entirely shut down mitochondrial respiration and determine the non-mitochondrial respiration. The latter is necessary to correct all OCRs and obtain the mitochondrial OCRs.
The ECARs were measured simultaneously at baseline and after OM and FCCP injection. The glycolytic ATP production was calculated from the baseline ECARs. The subsequent injection of OM pushed the cells to maximize their glycolytic ATP production to compensate for the loss in mitochondrial ATP production inflicted by OM. The further addition of FCCP drove mitochondrial respiration to a maximum and this eventually led to a further increase in glycolytic rates providing pyruvate into the TCA cycle to sustain maximal respiration. Therefore, the ECARs after FCCP injection were used to determine the maximum glycolytic capacity of the cells.
Further, the effects of a 24-hour incubation with citrate on glycolysis, mitochondrial respiration and total (glycolytic and mitochondrial) energy (ATP) production under resting conditions was assessed. Neuroglial cell cultures were grown in Neurobasal medium (NBM) supplemented with B27, high (25 mM) glucose, and high (0.8 mM) Mg2+ from DIV0 until DIV14. They were switched to NBM supplemented with B27, low (5 mM) glucose, and high (0.8 mM) Mg^2+ from DIV14 until DIV16. On DIV16, the medium was exchanged for DMEM (which is, in contrast to HBSS, not a nutrient-deprived medium) containing low (5 mM) glucose, high (0.8 mM) Mg^2+ and 500 μM or 1 mM citrate. On DIV17, one hour prior to the Seahorse run, the medium was replaced with unbuffered DMEM containing low (5 mM) glucose, high (0.8 mM) Mg^2+ and 500 μM or 1 mM citrate. The cells were left in this medium until the end of the run. Five repeats per condition were done.

Take `O=C(O)CC(O)(CC(=O)O)C(=O)O` [citrate]: in assay [1], the “concentrations at which PFK1 isoforms are inhibited” value is on record as “above 100 μM”. Besides, the “increase in OM-induced glycolytic rates (tended)” value in assay [2] (1 mM citrate, 0.1 mM Mg2+ medium) is around 15%; in assay [2] (1 mM citrate, 0.8 mM Mg2+ medium), around 60%. In addition, the “increase in total (mitochondrial and glycolytic) ATP production” value is reported as around 75% in assay [2] (1 mM citrate, 0.8 mM Mg2+ control medium, FIG. 3A) and around 60% in assay [3] (0.1 mM Mg2+ control medium, FIG. 3A). Further, the “increase in basal mitochondrial respiration” value in assay [2] (1 mM citrate, 0.8 mM Mg2+ control medium, FIG. 3B) is around 100%; in assay [3] (0.1 mM Mg2+ control medium, FIG. 3B), around 40%; in assay [4] (500 μM and 1 mM citrate, FIG. 4B) it was around 60%. Also, in assay [2] (1 mM citrate, 0.8 mM Mg2+ control medium, FIG. 3E), the “increase in FCCP-driven maximal glycolytic capacity (tended)” value was around 35%. Moreover, the “increase in basal glycolytic rates” value is around 70% in assay [2] (1 mM citrate, 0.8 mM Mg2+ medium, FIG. 3C); around 20% in assay [3] (0.1 mM Mg2+ medium, FIG. 3C); around 45% in assay [4] (500 μM citrate); around 20% in assay [4] (1 mM citrate). In assay [2] (resting, high Mg2+ medium (DMEM, 5 mM glucose), dose-dependent, vs control medium without citrate, FIG. 1E), the “increase in mitochondrial oxygen consumption rates (OCR) at baseline” value was at most 25%. In addition, the “increase in OM-induced proton leak” value in assay [2] (resting, high Mg2+ medium (DMEM, 5 mM glucose), vs control medium without citrate, FIG. 1F) is at most 10%. In assay [2] (resting, high Mg2+ medium (DMEM, 5 mM glucose), vs control medium without citrate, FIG. 1G), the “effect on FCCP-driven maximal respiratory capacity” value is given as “not significantly impacting”. Besides, the “increase in OM- and FCCP-induced maximal glycolytic capacity” value in assay [2] (resting, high Mg2+ medium, 0.25 mM citrate, FIG. 2E, F) is 10-15%. The “increase in basal glycolytic rates and lactate secretion” value in assay [2] (resting, high Mg2+ medium, acute, dose-dependent, FIG. 2D) is listed as around 25%. In addition, the “increase in FCCP-induced maximal mitochondrial respiratory capacity” value in assay [4] (500 μM and 1 mM citrate, FIG. 4C) was 60-70%. Further, in assay [4] (500 μM and 1 mM citrate, DMEM 5 mM glucose, FIG. 4A), the “increase in basal mitochondrial and glycolytic ATP production” value is given as around 45%. Besides, the “increase in OM-induced increase in glycolytic rates” value in assay [4] (500 μM citrate) is given as around 70%; in assay [4] (1 mM citrate), around 30%. The figures for the “increase in FCCP-induced maximal glycolytic capacity” value in assay [4] (500 μM citrate) and in assay [4] (1 mM citrate) were around 75% and around 50%, respectively.
